Data published in patent EP4772500A1, “NOVEL ISOXAZOLE COMPOUND AS TM4SF5-SPECIFIC INHIBITOR AND USE THEREOF” (Seoul National University R&DB Foundation, priority 2023, dated 2025).

Assays:
Assay type in all cases: cell-based, human
[1] = tested on: TM4SF5-expressing cells (SNU449T7); assay: Western blotting for signaling factors whose phosphorylation increases in a TM4SF5-expression dependent manner; conditions: for phosphorylation of FAK, c-Src, STAT3, p27, S6K1, AKT, and STAT5: 5 µM, 24 hours (FIG. 9a-b); for phosphorylation of FAK, STAT3, c-Src, S6K1, Akt, and p27: given concentrations
Method: (§1) Cell extracts were obtained from cells grown to a density of 70-80% without any treatment, or from cells treated with vehicle DMSO or drugs at the given concentrations for 24 hours. For the extract of hepatocytes or liver cancer cells, a lysis buffer (150 mM NaCl, 1% NP-40, 50 mM Tris-HCl, 0.25% sodium deoxycholate, pH 7.4) including a protease inhibitor cocktail (GenDEPOT) was used. In addition, after washing animal liver tissue twice with PBS, SDS, Na3VO4, and protease inhibitor cocktails (GenDEPOT) were added to a lysis buffer [50 mM Tris-HCl, pH 7.4, 1% NP40, 0.25% sodium deoxycholate, 150 mM NaCl, 1 mM EDTA (based on 500 ml)], followed by treatment at 4°C for 15 minutes. After centrifugation at 13,000 rpm at 4°C for 30 minutes, only the supernatant was transferred to a new microcentrifuge tube. After quantification using BCA reagent (Thermo Scientific), a 4 × sample buffer [100% glycerol 4 ml, Tris-HCl, pH 6.8, 2.4 ml, SDS 0.8 g, Bromophenol blue 4 mg, betamercaptoethanol 0.4 ml, H2O 3.1 ml (based on 10 ml)] was added, followed by boiling at 100°C for 5 minutes. After performing SDS-PAGE electrophoresis with the above samples and transferring them to Nitrocellulose Membranes Protran™ nitrocellulose membranes (Whatman), pre-treatment was performed with 5% skim milk for 1 hour. After pre-treatment, primary antibodies of p-FAK(Y861) (SC-16663), p-FAK(Y577) (SC-16665), c-Src (SC-8056), STAT3 (SC-8019), p-AKT 1/2/3(S473) (SC-7985), STATS (SC-835), Laminin γ2 (SC-393225), COL1A1 (SC-28657), CCL5(RANTES) (SC-514019) CCL20(MIP-3α) (SC-517441), SIRT1 (SC-74465), ChREBP (SC-515922), SREBP1 (SC-366513), DGAT1 (SC-271934), DGAT2 (SC-293211), MICA/B (SC-137242), SLAMF7 (SC-390840), α-tublin (SC-5286), β-actin (SC-47778), FUCA (SC-365496) (the above from Santa Cruz Biotech, USA), p-FAK(Y397) (cat # 611723), FAK (cat # 610088), p27 (cat # 610242) (the above from BD Transduction, USA), p-FAK(Y925) (#3284) p-c-Src(Y416) (#2101), p-STAT3(Y705) (#9145), p70S6K1 (#9202), p-p70S6K1(T389) (#9205), p-STAT5(Y694) (#9314), ACC (#3676), FASN (#3189), CPT1A (#12252), p-ACC(S79) (#11818), HA (#3724), PD-L1 (#13684), PD-1 (#86163), p-ERK1/2(T202/Y204) (#9101s), ERK1/2 (#9102s) (the above from Cell Signaling Tech., USA), pS10p27(S10) (ab62364), human SLAMF6 (ab224201), TIGIT (ab233404), CD34 (ab81289) (the above from Abcam, UK), mouse SLAMF6 (PA5-87823), NKG2D (PA5-102038) (the above from Thermofisher, USA), α-SMA (Sigma Aldrich, A5228), CCL2 (Invitrogen, MA5-17040), and CD155(PVR) (Biolegend, 337601), HA (Biolegend, USA), Strep-HRP(horse-radish peroxidase), StrepMAB-HRP (IBA, USA), AFP (FineTest, FNab00203) were reacted at 4°C for 15 hours. The next day, secondary antibodies were reacted, and development was performed on X-ray film using ECL (Pierce, USA). Anti-TM4SF5C-ter (epitope region of RKKQDTPH^197) and anti-TM4SF5EC2 (CLMNGEWGYHFEDTAGA^130) were custom-made at a professional antibody production company (Pro-Sci, Poway, CA, USA).
Cell extracts were obtained before and after treating TM4SF5-non-expressing cells (SNU449Cp) and TM4SF5-expressing cells (SNU449T7) with ST-1-024 or ST-1-025 drugs at the given concentrations for 24 hours, and Western blotting was performed for signaling factors whose phosphorylation and activity increase in a TM4SF5-expression dependent manner.
(a) Cell extracts were obtained after treating TM4SF5-non-expressing cells (SNU449Cp) and TM4SF5-expressing cells (SNU449T7) with vehicle (DMSO), TSAHC, or isoxazole compounds ST-2-001, ST-2-002, ST-2-003, ST-2-004, ST-2-005, ST-2-006, ST-2-007, ST-2-008, ST-2-009, ST-2-010, or ST-2-011 at a dose of 5 µM (for 24 hours). Using these, Western blotting was performed for signaling factors whose phosphorylation and activity increase in a TM4SF5-expression dependent manner. […]

[2] = tested on: TM4SF5-non-expressing cells (SNU449Cp); assay: Western blotting for signaling factor phosphorylation in TM4SF5-non-expressing cells; conditions: 5 µM, 24 hours (FIG. 9a-b, blue-lined boxes)
Method: as §1
(a) Cell extracts were obtained after treating TM4SF5-non-expressing cells (SNU449Cp) and TM4SF5-expressing cells (SNU449T7) with vehicle (DMSO), ST-2-001, or an ST-2-001-based derivative drug at a concentration of 5 µM for 24 hours. (b) Cell extracts were obtained after treating SNU449Cp and SNU449T7 with DMSO, ST-2-001, ST-3-001, ST-3-006, ST-3-007, ST-3-010, or ST-3-011 at a concentration of 5 µM for 24 hours. (c) Cell extracts were obtained after treating SNU449Cp and SNU449T7 with DMSO, ST-2-001, ST-3-006, or ST-3-011 at the given concentrations for 24 hours. (a-c) Using the cell extracts obtained after the drug treatment, Western blotting was performed for signaling factors whose phosphorylation and activity increase in a TM4SF5-expression dependent manner.

[3] = tested on: TM4SF5-expressing cells (SNU449T7); assay: 3D sphere growth/proliferation
Method: TM4SF5-non-expressing cells (SNU449Cp) and TM4SF5-expressing cells (SNU449T7) of the same number (200 cells/well or 1000 cells/well) were added per well into Costar Ultra-Low Attachment Multiple Well Plates (CORNING), and were then treated with vehicle (DMSO) or drugs at various concentrations and cultured in a cell incubator under conditions of 37°C and 5% CO2. After repeatedly treating with the same concentrations of drugs every few days at regular intervals as indicated from the date of cell culture, the proliferation of the cells (spheres) was observed and photographed using an optical microscope on the last day of observation.
The drugs treated were the positive control drug TSAHC or the ST-1-025 isoxazole compound at the given concentrations. From the time of starting culture (0 day), (FIG. 3a) in the case of 2D culture, the number of cells was measured after treating with the drug every 24 hours, or (FIG. 3b) in a 3D environment, the proliferation of cells (spheres) was observed and photographed with an optical microscope on the 5th and 7th days after a single drug treatment at the start of culture. […]

SNU761-TM4SF5 = assay: Western blotting of SLAMF7 expression, TM4SF5-expressing SNU761 cells; conditions: chloroquine 10 µM, 24 hours (FIG. 15d)
Method: as §1, with “Anti-TM4SF5C-ter (epitope region of RKKQDTPH^197) and anti-TM4SF5EC2 (CLMNGEWGYHFEDTAGA^130) were custom-made at a professional antibody production company (Pro-Sci, Poway, CA, USA).” left out
After 24 hours, vehicle DMSO, drug ST-1-025, or ST-5-002 was treated at the given concentrations. […] (f) After treating NK92-EV or NK92-TM4SF5 cells with DMSO or drugs ST-2-001 (1 nM), ST-3-005 (10 nM or 1 µM), ST-5-001, or ST-5-002 (100 nM or 1 µM) for 24 hours, the expression of SLAMF7 expressed on the cell surface was analyzed through immunostaining using flow cytometry. The expression level of SLAMF7 was confirmed by adding a SLAMF7 antibody to bind with SLAMF7 and then measuring the fluorescence linked to the SLAMF7 antibody using flow cytometry. […]

[4] = 0.5 or 2.5 µM, observed 6th or 10th day (FIG. 10a, b)

Compound | phosphorylation of FAK, c-Src, STAT3, p27, S6K1, AKT, and STAT5 [1] | phosphorylation of some signaling factors [2] | degree of three-dimensional cell proliferation [3, 4] | further results
C=CC(=O)Nc1ccc(-c2cc(-c3ccc(OC)cc3)on2)cc1 [ST-3-010, N-(4-(5-(4-methoxyphenyl)isoxazole-3-yl)phenyl)acrylamide] | decreased | increased | inhibited | degree of three-dimensional cell proliferation ([3]; 0.1 or 1.0 µM, observed 10th day (FIG. 10c)): decreased; cell proliferation inhibitory effect ([3]; 0.5 or 2.5 µM (FIG. 10a, b), comparison among drugs): strong
Cc1ccc(S(=O)(=O)Nc2ccc(-c3cc(-c4ccc(O)cc4)no3)cc2)cc1 [ST-4-005, N-(4-(3-(4-hydroxyphenyl)isoxazole-5-yl)phenyl)-4-methylbenzenesulfonamide] | – | – | – | phosphorylation of FAK, STAT3, c-Src, S6K1, Akt, and p27 ([1]; 24 hours (FIG. 12a)): inhibited in many cases including STAT3, S6K1, and FAK; phosphorylation of FAK, STAT3, c-Src, S6K1, Akt, and p27 ([1]; 24 hours (FIG. 12d)): inhibited; survival/proliferation of the spheres ([3]; given concentrations on the 0, 3, 6, and 9th days, observed 10th day (FIG. 12b-c)): inhibited
CCN(CC)CCCC(C)Nc1ccnc2cc(Cl)ccc12 (stereo not drawn) [CQ, chloroquine, reference compound] | – | – | – | reduction in SLAMF7 expression (SNU761-TM4SF5): not clearly seen
CC(=O)Nc1ccc(-c2cc(-c3ccc(C(C)(C)C)cc3)on2)cc1 [ST-3-007, N-(4-(5-(4-(tert-butyl)phenyl)isoxazole-3-yl)phenyl)acetamide] | decreased | increased | inhibited | –
